Results: patent US11053230B2, “3-hydroxy-imidazolidin-4-one compounds as inhibitors of indoleamine 2,3-dioxygenase” (Netherlands Translational Research Center B.V., priority 2017, dated 2021)
Values joined by “and” are separate entries in the source; they are usually repeats but may differ in a detail not shown here. Equal entries are not always repeated.

What was measured:
melanoma = conditions: mouse model for melanoma; cited from earlier work
[1] = target: tryptophan 2,3-dioxygenase (TDO) (Homo sapiens, UniProt P48775); conditions: biochemical assays; cited from earlier work
colon cancer = conditions: mouse model for colon cancer; cited from earlier work
Leishmania major = conditions: in vivo; cited from earlier work
[2] = system: melanoma and glioblastoma; conditions: mouse tumor models for melanoma and glioblastoma; cited from earlier work
[3] = system: IDO1 expressed in mouse tumor cells; conditions: pre-immunized mice; cited from earlier work
lung carcinoma = conditions: syngeneic mouse lung carcinoma model and transgenic mouse model; cited from earlier work
influenza virus = conditions: influenza virus-infected mice; cited from earlier work
[4] = randomized, open-label, phase 2, ovarian cancer patients; cited from earlier work
plasma kynurenine levels = conditions: phase 1, advanced solid malignancies, all doses; cited from earlier work
IDO1 = target: T1, IDO1 (Homo sapiens, UniProt P14902); assay: Biochemical IDO1 assay (NFK GreenScreen); conditions: for IC50: NFK GreenScreen, 25 nM IDO1, 100 μM L-tryptophan, read-out: IC50, inhibitory potency on IDO1; for relative activity of the separated isomers: stated in the synthesis examples, assay not named
T1 construct: Recombinant full-length IDO1 (Seegers, N., et al.) and all other assay components were diluted in IDO1 reaction buffer; made in house
In short: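 Recombinant full-length IDO1 in 50 mM NaH2PO4 pH 7.0 with 0.05% Tween-20 and 1% glycerol converted 100 μM L-tryptophan (final) over 60 min at room temperature with compound, 0.3% DMSO.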

T1 sequence (P14902 whole entry): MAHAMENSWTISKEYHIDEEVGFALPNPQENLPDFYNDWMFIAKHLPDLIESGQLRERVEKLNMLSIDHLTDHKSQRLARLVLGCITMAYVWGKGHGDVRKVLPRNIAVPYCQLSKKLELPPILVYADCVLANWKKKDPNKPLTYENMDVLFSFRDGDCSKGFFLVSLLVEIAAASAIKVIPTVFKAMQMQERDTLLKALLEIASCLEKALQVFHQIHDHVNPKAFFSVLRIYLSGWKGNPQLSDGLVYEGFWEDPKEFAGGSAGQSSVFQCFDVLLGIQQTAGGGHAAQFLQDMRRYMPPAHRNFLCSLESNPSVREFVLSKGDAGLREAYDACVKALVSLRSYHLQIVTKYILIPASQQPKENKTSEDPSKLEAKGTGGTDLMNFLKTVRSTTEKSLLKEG
tryptophan 2,3-dioxygenase (TDO), sequence (P48775 whole entry, species assumed): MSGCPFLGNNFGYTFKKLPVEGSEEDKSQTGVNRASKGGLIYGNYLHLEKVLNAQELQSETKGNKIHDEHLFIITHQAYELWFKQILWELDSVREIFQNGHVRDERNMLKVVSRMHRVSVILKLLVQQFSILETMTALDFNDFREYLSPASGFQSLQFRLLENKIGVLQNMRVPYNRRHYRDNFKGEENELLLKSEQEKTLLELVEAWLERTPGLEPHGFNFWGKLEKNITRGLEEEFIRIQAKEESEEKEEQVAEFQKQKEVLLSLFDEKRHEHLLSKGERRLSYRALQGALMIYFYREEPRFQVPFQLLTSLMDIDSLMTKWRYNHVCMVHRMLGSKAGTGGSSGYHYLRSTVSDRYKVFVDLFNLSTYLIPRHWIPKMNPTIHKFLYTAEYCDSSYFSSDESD

| Compound | IC50 (IDO1) | also measured |
| --- | --- | --- |
| Nc1nonc1C(=NO)Nc1ccc(F)c(Cl)c1 [compound 51, 4-amino-N-(3-chloro-4-fluorophenyl)-N′-hydroxy-1,2,5-oxadiazole-3-carboximidamide] |  | tumor growth (melanoma): reduction of tumor growth; inhibition of TDO activity [1]: inhibit the activity of tryptophan 2,3-dioxygenase (TDO); tumor growth (colon cancer): reduction of tumor growth |
| Cn1cc(C[C@H](N)C(=O)O)c2ccccc21 [Example 1-MT, 1-methyl-L-tryptophan] |  | parasite burden (Leishmania major): reduced the parasite burden; efficacy of PD-1 and CTLA4 antibodies in combination [2]: increased the efficacy of antibodies; reversal of IDO1-mediated prevention of tumor cell rejection [3]: this effect could be reverted; efficacy of a cancer vaccine in combination (lung carcinoma): increased the efficacy of a cancer vaccine; T cell response against the virus (influenza virus): enhanced T cell response against the virus |
| NS(=O)(=O)NCCNc1nonc1C(=NO)Nc1ccc(F)c(Br)c1 [epacadostat] |  | tolerability [4]: generally well tolerated; plasma kynurenine levels (plasma kynurenine levels): significant dose-dependent reductions; tumor growth (colon cancer): further reduction of tumor growth |
| Cc1sc(C2N(O)C(=O)CN2C(=O)c2c(F)cccc2F)cc1Br (centres unmarked) [Example 113, 2-(4-bromo-5-methyl-2-thienyl)-1-(2,6-difluorobenzoyl)-3-hydroxy-imidazolidin-4-one] | ≤ 1000 nM |  |
| C[C@@H](c1ccccc1)N1CC(=O)N(O)C1c1ccc(Br)s1 (single isomer, unassigned) [Example 120a] |  | relative activity of the separated isomers (IDO1): less active isomer |
| O=C1CN(C(=O)c2c(F)cccc2F)C(c2cc(Br)cs2)N1O (centres unmarked) [Example 8, 2-(4-Bromo-2-thienyl)-1-(2,6-difluorobenzoyl)-3-hydroxy-imidazolidin-4-one] | ≤ 1000 nM |  |
| O=C1CN(C(=O)c2c(F)cccc2F)C(c2cc(Br)c(F)s2)N1O (single isomer, unassigned) [Example 110b, 2-(4-Bromo-5-fluoro-2-thienyl)-1-(2,6-difluorobenzoyl)-3-hydroxy-imidazolidin-4-one] |  | relative activity of the separated isomers (IDO1): less active isomer |
| O=C1CN(C(=O)c2c(F)ccc(-c3ccc(F)s3)c2F)C(c2cc(Br)cs2)N1O (centres unmarked) [Example 132, 2-(4-Bromo-2-thienyl)-1-[2,6-difluoro-3-(5-fluoro-2-thienyl)benzoyl]-3-hydroxy-imidazolidin-4-one] | ≤ 1000 nM |  |
| CCc1ccc(C2N(O)C(=O)CN2C(=O)c2c(F)cccc2F)s1 (centres unmarked) [Example 18, 1-(2,6-Difluorobenzoyl)-2-(5-ethyl-2-thienyl)-3-hydroxy-imidazolidin-4-one] | ≤ 5000 nM and 1000 to 5000 nM |  |
| O=C1CN(C(=O)c2c(F)cccc2F)C(c2cc([N+](=O)[O-])cs2)N1O (centres unmarked) [Example 21, 1-(2,6-Difluorobenzoyl)-3-hydroxy-2-(4-nitro-2-thienyl)imidazolidin-4-one] | ≤ 1000 nM |  |
| O=C1CN(C(=O)c2c(F)ccc(Br)c2F)C(c2cc(Br)cs2)N1O (centres unmarked) [Example 74, 1-(3-Bromo-2,6-difluoro-benzoyl)-2-(4-bromo-2-thienyl)-3-hydroxy-imidazolidin-4-one] | ≤ 1000 nM |  |
| O=C1CN(C(=O)c2c(F)ccc(B(O)O)c2F)C(c2cc(Br)cs2)N1O (centres unmarked) [Example 126, [3-[2-(4-Bromo-2-thienyl)-3-hydroxy-4-oxo-imidazolidine-1-carbonyl]-2,4-difluoro-phenyl]boronic acid] | ≤ 5000 nM and 1000 to 5000 nM |  |
| C[C@@H](c1ccccc1)N1CC(=O)N(O)C1c1cc(Br)cs1 (single isomer, unassigned) [Example 118a] |  | relative activity of the separated isomers (IDO1): less active isomer |
| O=C1CN(C(=O)c2c(F)cccc2F)C(c2ccc(Br)s2)N1O (centres unmarked) [Example 4, 2-(5-Bromo-2-thienyl)-1-(2,6-difluorobenzoyl)-3-hydroxy-imidazolidin-4-one] | ≤ 1000 nM |  |
| O=C1CN(C(=O)c2c(F)cc(C3CC3)cc2F)C(c2cc(Br)cs2)N1O (centres unmarked) [Example 82, 2-(4-Bromo-2-thienyl)-1-(4-cyclopropyl-2,6-difluoro-benzoyl)-3-hydroxy-imidazolidin-4-one] | ≤ 1000 nM |  |
| O=C1CN(C(=O)c2c(F)cc(-c3cn[nH]c3)cc2F)C(c2cc(Br)cs2)N1O (centres unmarked) [Example 96, 2-(4-bromo-2-thienyl)-1-[2,6-difluoro-4-(1H-pyrazol-4-yl)benzoyl]-3-hydroxy-imidazolidin-4-one] | ≤ 1000 nM |  |
| O=C1CN(C(=O)C2CCCCC2)C(c2cc(Br)cs2)N1O (centres unmarked) [Example 67, 2-(4-Bromo-2-thienyl)-1-(cyclohexanecarbonyl)-3-hydroxy-imidazolidin-4-one] | ≤ 5000 nM and 1000 to 5000 nM |  |
| O=C1CN(C(=O)c2c(F)cc(Br)cc2F)C(c2cc(Br)cs2)N1O (centres unmarked) [Example 52, 1-(4-Bromo-2,6-difluoro-benzoyl)-2-(4-bromo-2-thienyl)-3-hydroxy-imidazolidin-4-one] | ≤ 1000 nM |  |
| NC1(C#Cc2cc(F)c(C(=O)N3CC(=O)N(O)C3c3cc(Br)cs3)c(F)c2)CC1 (centres unmarked) [Example 89, 1-[4-[2-(1-Aminocyclopropyl)ethynyl]-2,6-difluoro-benzoyl]-2-(4-bromo-2-thienyl)-3-hydroxy-imidazolidin-4-one] | ≤ 1000 nM |  |
| C[C@@H](c1ccccc1)N1CC(=O)N(O)C1c1cc(Br)cs1 (single isomer, unassigned) [Example 118b] | ≤ 1000 nM | relative activity of the separated isomers (IDO1): most active isomer |
| COc1ccc(F)c(C(=O)N2CC(=O)N(O)C2c2csc(Br)c2)c1F (centres unmarked) [Example 104, 2-(5-Bromo-3-thienyl)-1-(2,6-difluoro-3-methoxy-benzoyl)-3-hydroxy-imidazolidin-4-one] | ≤ 1000 nM |  |
| C#Cc1ccc(F)c(C(=O)N2CC(=O)N(O)C2c2cc(Br)cs2)c1F (centres unmarked) [Example 127, 2-(4-Bromo-2-thienyl)-1-(3-ethynyl-2,6-difluoro-benzoyl)-3-hydroxy-imidazolidin-4-one] | ≤ 1000 nM |  |
| C#Cc1csc(C2N(O)C(=O)CN2C(=O)c2ccccc2F)c1 (centres unmarked) [Example 35, 2-(4-Ethynyl-2-thienyl)-1-(2-fluorobenzoyl)-3-hydroxy-imidazolidin-4-one] | ≤ 5000 nM and 1000 to 5000 nM |  |
